“And” between values parts separate entries of the source, which are not always exact repeats. Equal entries are not always repeated. *1 amine or outer side, *2 acyl side, *3 side chain or, on linkers, in order; H or OH if unused. Where a SMILES comes first, the peptide text is derived from it. Where no end group is shown, it is not given here. The star is where a group is joined. NH(CH2)4NH(7-Cl-4-quinolyl) = Clc1ccc2c(NCCCCN*)ccnc2c1; Suc = O=C(CCC(=O)[*:2])[*:1]
Test system: not listed separately
Assay: In vitro hemolytic activity on Plasmodium-infected erythrocyte cultures
Format: cell-based
Details: cultures with 3% PiRBC, dash with footnote c = hemolysis not detected, read-out: % hemolysis at 10 µM ± SD (n = 3), PiRBC
Procedure: (§1) For positive and negative controls, 1% Triton X-100 and PBS were added, respectively. After this period, the plates were centrifuged and supernatants transferred to another plate. Supernatant absorbance at 450 nm was assessed in a multi-mode microplate reader (Triad, Dynex Technologies, Chantilly, VA, USA) and values were treated using the following equation (1):(1) % Hemolysis=Abs−Abs(negative control)/Abs(positive control)−Abs(negative control)

Molecule	hemolysis at 1 h, 10 µM [%]
CC[C@H](C)[C@H](NC(=O)[C@H](CCCCNC(=O)CCC(=O)NCCCCNc1ccnc2cc(Cl)ccc12)NC(=O)[C@H](CCCCN)NC(=O)[C@H](C)NC(=O)[C@H](CC(C)C)NC(=O)[C@H](C)NC(=O)[C@H](C)NC(=O)[C@H](CC(C)C)NC(=O)[C@H](C)NC(=O)[C@H](CCCCN)NC(=O)[C@H](CC(C)C)NC(=O)[C@H](CC(N)=O)NC(=O)[C@@H](NC(=O)[C@H](CCCCN)NC(=O)CNC(=O)[C@H](CC(C)C)NC(=O)[C@H](CC(C)C)NC(=O)[C@H](Cc1ccc(O)cc1)NC(=O)CNC(=O)[C@H](C)N)[C@@H](C)CC)C(=O)N[C@@H](CC(C)C)C(N)=O [compound 13]	41 ± 2
CC[C@H](C)[C@H](NC(=O)[C@H](CCCCN)NC(=O)[C@H](CCCCN)NC(=O)[C@H](C)NC(=O)[C@H](CC(C)C)NC(=O)[C@H](C)NC(=O)[C@H](C)NC(=O)[C@H](CC(C)C)NC(=O)[C@H](C)NC(=O)[C@H](CCCCN)NC(=O)[C@H](CC(C)C)NC(=O)[C@H](CC(N)=O)NC(=O)[C@@H](NC(=O)[C@H](CCCCN)NC(=O)CNC(=O)[C@H](CC(C)C)NC(=O)[C@H](CC(C)C)NC(=O)[C@H](Cc1ccc(O)cc1)NC(=O)CNC(=O)[C@H](C)N)[C@@H](C)CC)C(=O)N[C@@H](CC(C)C)C(=O)N[C@@H](CSSC[C@H](N)C(=O)NCCCC(C)Nc1cc(OC)cc2cccnc12)C(N)=O (some centres unmarked) [14′]	72 ± 9

Test system: P. falciparum W2
Assay: not given
Format: cell-based
Details: P. falciparum W2 (CQ-resistant), 48 h, n = 3
Procedure: All conjugates and their respective parent CPP (Table 1), were screened in vitro for their antiplasmodial activity, using the CQ-resistant P. falciparum W2 strain. The primaquine analogue to 5a, i.e., conjugate 3 where the CPP is TP10, PQ-C4-TP10 (3a), was also included in the study for comparison.
Synchronized ring-stage P. falciparum parasites (W2 strain) were incubated with test compounds for 48 h in Roswell Park Memorial Institute (RPMI) 1640 medium containing 10% human serum or 0.5% Albumax serum substitute. Parasites were then fixed with 1% formaldehyde in phosphate-buffered saline (PBS), pH 7.4, for […] at RT and labeled with YOYO-1 (1 nM; molecular probes) in 0.1% Triton X-100 in PBS. Parasitemias were determined by flow cytometry, from dot plots (forward scatter versus fluorescence). For 50% inhibitory concentration (IC50) determinations, dose-response studies were performed, with the values normalized to percent control activity, and IC50s were calculated using GraphPad Prism, with data fitted by nonlinear regression.

Molecule	IC50
H-VKKKKIKREIKI-NH2 [DPT-sh1]	> 10 µM
VRLIVAVRIWRR-NH2 [IDR-1018]	> 10 µM
CC[C@H](C)[C@H](NC(=O)[C@H](CCCCN)NC(=O)[C@H](CCCCN)NC(=O)[C@H](C)NC(=O)[C@H](CC(C)C)NC(=O)[C@H](C)NC(=O)[C@H](C)NC(=O)[C@H](CC(C)C)NC(=O)[C@H](C)NC(=O)[C@H](CCCCN)NC(=O)[C@H](CC(C)C)NC(=O)[C@H](CC(N)=O)NC(=O)[C@@H](NC(=O)[C@H](CCCCN)NC(=O)CNC(=O)[C@H](CC(C)C)NC(=O)[C@H](CC(C)C)NC(=O)[C@H](Cc1ccc(O)cc1)NC(=O)CNC(=O)[C@H](C)NC(=O)[C@H](CO)NC(=O)[C@H](CC(N)=O)NC(=O)[C@H](CC(C)C)NC(=O)[C@@H](NC(=O)[C@H](Cc1c[nH]c2ccccc12)NC(=O)CN)[C@@H](C)O)[C@@H](C)CC)C(=O)N[C@@H](CC(C)C)C(N)=O [Transportan]	3.05 µM and 3.1 µM
H-FFLIPKGGRKKRRQRRRPPQ-NH2 [PasTAT]	> 10 µM
CC[C@H](C)[C@H](NC(=O)[C@H](CCCNC(=N)N)NC(=O)[C@@H](NC(=O)[C@H](C)NC(=O)[C@@H](NC(=O)[C@@H](NC(=O)[C@H](CC(C)C)NC(=O)[C@H](CCCNC(=N)N)NC(=O)[C@@H](NC(=O)CCC(=O)NCCCCNc1ccnc2cc(Cl)ccc12)C(C)C)[C@@H](C)CC)C(C)C)C(C)C)C(=O)N[C@@H](Cc1c[nH]c2ccccc12)C(=O)N[C@@H](CCCNC(=N)N)C(=O)N[C@@H](CCCNC(=N)N)C(N)=O [5e] ({NH(CH2)4NH(7-Cl-4-quinolyl)-Suc}-VRLIVAVRIWRR-NH2)	> 10 µM
N=C(N)NCCC[C@H](NC(=O)CNC(=O)CCC(=O)NCCCCNc1ccnc2cc(Cl)ccc12)C(=O)N[C@@H](CCCCN)C(=O)N[C@@H](CCCCN)C(=O)N[C@@H](CCCNC(=N)N)C(=O)N[C@@H](CCCNC(=N)N)C(=O)N[C@@H](CCC(N)=O)C(=O)N[C@@H](CCCNC(=N)N)C(=O)N[C@@H](CCCNC(=N)N)C(=O)N[C@@H](CCCNC(=N)N)C(=O)N1CCC[C@H]1C(=O)N1CCC[C@H]1C(=O)N[C@@H](CCC(N)=O)C(N)=O [5f]	> 10 µM
CC[C@H](C)[C@H](NC(=O)[C@H](CC(C)C)NC(=O)[C@H](CCCNC(=N)N)NC(=O)[C@H](CCCCN)NC(=O)[C@H](CCC(N)=O)NC(=O)[C@H](CCCNC(=N)N)NC(=O)[C@@H](NC(=O)[C@H](CC(C)C)NC(=O)[C@H](CCCNC(=N)N)NC(=O)[C@H](CCCCN)NC(=O)[C@H](CCC(N)=O)NC(=O)[C@H](CCCNC(=N)N)NC(=O)[C@@H](NC(=O)[C@H](CC(C)C)NC(=O)[C@H](CCCNC(=N)N)NC(=O)[C@H](CCCCN)NC(=O)[C@H](CCC(N)=O)NC(=O)[C@H](CCCNC(=N)N)NC(=O)CCC(=O)NCCCCNc1ccnc2cc(Cl)ccc12)[C@@H](C)CC)[C@@H](C)CC)C(N)=O [5d] ({NH(CH2)4NH(7-Cl-4-quinolyl)-Suc}-RQKRLIRQKRLIRQKRLI-NH2)	> 10 µM

Test system: not listed separately
Assay: In vitro hemolytic activity on healthy erythrocytes
Format: cell-based
Details: healthy erythrocytes (hRBC); 10 µM, 1 h, hRBC only; dash with footnote c = hemolysis not detected; read-out: % hemolysis at 10 µM ± SD (n = 3), hRBC
Procedure: as §1

Molecule	hemolysis at 1 h, 10 µM [%]
CC[C@H](C)[C@H](NC(=O)[C@H](CCCCNC(=O)CCC(=O)NCCCCNc1ccnc2cc(Cl)ccc12)NC(=O)[C@H](CCCCN)NC(=O)[C@H](C)NC(=O)[C@H](CC(C)C)NC(=O)[C@H](C)NC(=O)[C@H](C)NC(=O)[C@H](CC(C)C)NC(=O)[C@H](C)NC(=O)[C@H](CCCCN)NC(=O)[C@H](CC(C)C)NC(=O)[C@H](CC(N)=O)NC(=O)[C@@H](NC(=O)[C@H](CCCCN)NC(=O)CNC(=O)[C@H](CC(C)C)NC(=O)[C@H](CC(C)C)NC(=O)[C@H](Cc1ccc(O)cc1)NC(=O)CNC(=O)[C@H](C)N)[C@@H](C)CC)C(=O)N[C@@H](CC(C)C)C(N)=O [compound 13]	50 ± 2
CC[C@H](C)[C@H](NC(=O)[C@H](CCCCN)NC(=O)[C@H](CCCCN)NC(=O)[C@H](C)NC(=O)[C@H](CC(C)C)NC(=O)[C@H](C)NC(=O)[C@H](C)NC(=O)[C@H](CC(C)C)NC(=O)[C@H](C)NC(=O)[C@H](CCCCN)NC(=O)[C@H](CC(C)C)NC(=O)[C@H](CC(N)=O)NC(=O)[C@@H](NC(=O)[C@H](CCCCN)NC(=O)CNC(=O)[C@H](CC(C)C)NC(=O)[C@H](CC(C)C)NC(=O)[C@H](Cc1ccc(O)cc1)NC(=O)CNC(=O)[C@H](C)N)[C@@H](C)CC)C(=O)N[C@@H](CC(C)C)C(=O)N[C@@H](CSSC[C@H](N)C(=O)NCCCC(C)Nc1cc(OC)cc2cccnc12)C(N)=O (some centres unmarked) [14′]	99.7 ± 0.4

From publication PMC6943437, “Coupling the Antimalarial Cell Penetrating Peptide TP10 to Classical Antimalarial Drugs Primaquine and Chloroquine Produces Strongly Hemolytic Conjugates” (Molecules, 2019)
